Data taken from US20230210803A1, “TRANS-CROCETIN COMPOSITIONS AND TREATMENT REGIMENS” (L.E.A.F. HOLDINGS GROUP LLC, priority 2020, published 2023).

Legend:
[1] = mouse, in vivo, iv, 50 mg/kg
[2] = Liposomal CTC and MTC PK in mice; set-up: species or system Balb/c mice; conditions: mouse, in vivo
Description: 5 μL of each plasma sample was mixed with 395 μL methanol containing 1% formic acid. Sample mixtures were well mixed by vortexing. […] Samples were vortexed and then centrifuged at 10000 RPM for 10 min at room temperature. 200 μL of supernatant was removed from each sample without disturbing pellet and analyzed by HPLC. If the amount of plasma permitted, this analysis was duplicated.
The concentration of STC in the plasma samples was quantified by standard curve constructed by analyzing plasma samples containing known amount of STC. PK profiles were analyzed.

[3] = system: HUVECs; test: Reoxygenation of HUVECs under hypoxic conditions (BioTracker 520 Green Hypoxia Dye, flow cytometry); conditions: continuous hypoxic conditions (1% PO2)
Description: For quantification of the hypoxia levels, cells were then incubated for 1 h with 1.5 μM BioTracker 520 Green Hypoxia Dye (Sigma-Aldrich) before being washed and stored in the hypoxia chamber for 1 h. […] Hypoxia levels were quantified with a BD Accuri™ C6 cell analyzer with a direct read-out of the BioTracker probe. The results were analyzed with FlowJo software version 10 (TreeStar).

[4] = PK of L4L-121 versus free TC in healthy mice; conditions: mouse, in vivo, one intravenous injection 2.5 mg/kg (normalized to TC)
Description: […]. […] […]. […] […]

Row | SMILES | T½ [1] | half-life (t1/2) [2] | reoxygenation effect (PO2) ([3]; 5 μg/mL TC, 30 min post-treatment) | PO2 after loss of efficacy ([3]; 3 h after treatment) [% PO2] | half-life [4] [min] | AUC ([4]; read-out: exposure (AUC)) [ng·h/mL]
1 | CC(/C=C/C=C(\C)C(=O)[O-])=C\C=C\C=C(C)\C=C\C=C(/C)C(=O)[O-].[Na+].[Na+] [STC free drug, sodium trans-crocetinate] | less than 0.5 h | half an hour |  |  |  | 
2 | CC(/C=C/C=C(\C)C(=O)O)=C\C=C\C=C(C)\C=C\C=C(/C)C(=O)O [free TC, trans-crocetin free acid] |  |  | up to 15 % PO2 | 5 | 37.1 | 2700
